Assay results: the supplement of paper PMC10307832

Key:
Assay in all cases: relative viability (nuclei count vs DMSO), 5 days (fraction); higher = more cells survive
Linsitinib + Crizotinib = compound: C[C@]1(O)C[C@@H](c2nc(-c3ccc4ccc(-c5ccccc5)nc4c3)c3c(N)nccn32)C1 [Linsitinib] + C[C@@H](Oc1cc(-c2cnn(C3CCNCC3)c2)cnc1N)c1c(Cl)ccc(F)c1Cl [Crizotinib] (partner 1 µM)
In short: (§1)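 The day after seeding in 1536-well plates, lung cancer cell lines were treated by pin tool with a single drug, or with a fixed anchor-drug dose together with five library-drug doses (not always all listed) in √10 steps. After 5 days, a combined fix-and-stain solution (final 0.05% Triton X-100, 1% formaldehyde, 1 ug/ml Hoechst) was added. Nuclei counted on 4× images gave relative viability as treated counts over vehicle counts, reported as the median of duplicate plates.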

Linsitinib + Olaparib = compound: C[C@]1(O)C[C@@H](c2nc(-c3ccc4ccc(-c5ccccc5)nc4c3)c3c(N)nccn32)C1 [Linsitinib] + O=C(c1cc(Cc2n[nH]c(=O)c3ccccc23)ccc1F)N1CCN(C(=O)C2CC2)CC1 [Olaparib] (partner 8 µM)
In short: as §1

Ispinesib + Bortezomib = compound: Cc1ccc(C(=O)N(CCCN)[C@@H](c2nc3cc(Cl)ccc3c(=O)n2Cc2ccccc2)C(C)C)cc1 [Ispinesib] + CC(C)C[C@H](NC(=O)[C@H](Cc1ccccc1)NC(=O)c1cnccn1)B(O)O [Bortezomib] (partner 0.002 µM)
In short: as §1

Ispinesib + Decitabine = compound: Cc1ccc(C(=O)N(CCCN)[C@@H](c2nc3cc(Cl)ccc3c(=O)n2Cc2ccccc2)C(C)C)cc1 [Ispinesib] + Nc1ncn([C@H]2C[C@H](O)[C@@H](CO)O2)c(=O)n1 [Decitabine] (partner 2 µM)
In short: as §1

Row | Cell Line | relative viability (Linsitinib + Crizotinib; first compound 0.01 µM) | relative viability (Linsitinib + Crizotinib; first compound 0.03162 µM) | relative viability (Linsitinib + Crizotinib; first compound 0.1 µM) | relative viability (Linsitinib + Crizotinib; first compound 0.3162 µM) | relative viability (Linsitinib + Crizotinib; first compound 1 µM) | relative viability (Linsitinib + Olaparib; first compound 0.03162 µM) | relative viability (Linsitinib + Olaparib; first compound 0.1 µM) | relative viability (Linsitinib + Olaparib; first compound 0.3162 µM) | relative viability (Linsitinib + Olaparib; first compound 1 µM) | relative viability (Ispinesib + Bortezomib; first compound 0.001 µM) | relative viability (Ispinesib + Bortezomib; first compound 0.003162 µM) | relative viability (Ispinesib + Bortezomib; first compound 0.01 µM) | relative viability (Ispinesib + Bortezomib; first compound 0.03162 µM) | relative viability (Ispinesib + Bortezomib; first compound 0.1 µM) | relative viability (Ispinesib + Decitabine; first compound 0.001 µM) | relative viability (Ispinesib + Decitabine; first compound 0.003162 µM) | relative viability (Ispinesib + Decitabine; first compound 0.01 µM) | relative viability (Ispinesib + Decitabine; first compound 0.03162 µM) | relative viability (Ispinesib + Decitabine; first compound 0.1 µM) | relative viability (Linsitinib + Olaparib; first compound 0.01 µM)
1 | HCC-78 | 0.298 | 0.356 | 0.278 | 0.338 | 0.265 | 1 | 0.706 | 0.916 | 0.506 | 0.504 | 0.531 | 0.459 | 0.308 | 0.394 | 0.68 | 0.732 | 0.825 | 0.577 | 0.578 | –
2 | HCC-366 | 0.542 | 0.487 | 0.583 | 0.433 | 0.429 | 0.219 | 0.481 | 0.332 | 0.265 | 1.29 | 1.1 | 1.43 | 0.323 | 0.0344 | 0.377 | 0.426 | 0.396 | 0.399 | 0.0716 | 0.354
3 | HCC-827 | 0.997 | 1.03 | 0.932 | – | 0.948 | 0.377 | 0.606 | – | 0.625 | 1.1 | 1.18 | 1.04 | 0.691 | 0.875 | 0.303 | 0.373 | 0.32 | 0.294 | 0.234 | 0.759
4 | HOP-62 | 0.959 | 1.02 | 0.798 | – | 0.954 | 0.247 | 0.524 | 0.244 | 0.393 | 0.46 | 0.974 | 1.18 | 1.09 | 0.32 | 0.22 | 0.191 | 0.226 | 0.224 | 0.23 | –
5 | LC-2-ad | 0.479 | 0.566 | 0.451 | 0.357 | 0.311 | 0.751 | 0.73 | 0.625 | 0.685 | 1.01 | 1.07 | 1.07 | 0.917 | 0.119 | 0.847 | 0.787 | 0.872 | 0.815 | 0.54 | 0.621
6 | LCLC-97TM1 | 0.336 | 0.416 | 0.525 | 0.263 | 0.305 | 0.548 | 0.353 | 0.257 | 0.437 | 0.518 | 1.16 | 0.689 | 0.143 | 0.254 | 0.248 | 0.24 | 0.303 | 0.235 | 0.19 | 0.504
7 | LCLC-103H | 0.991 | 0.973 | 1.01 | 0.924 | 0.932 | 0.776 | 0.771 | 0.689 | 0.758 | 0.96 | 1.27 | 1.19 | 0.813 | 0.447 | 0.757 | 0.741 | 0.739 | 0.68 | 0.6 | 0.743
